Results published in PMC7808747, “Design, synthesis, and in vitro evaluation of BP-1-102 analogs with modified hydrophobic fragments for STAT3 inhibition” (Journal of Enzyme Inhibition and Medicinal Chemistry, 2021).

What was measured:
RPE-1 = test: Resazurin assay, RPE-1 (Table 2); format: cell-based; settings: Homo sapiens, resazurin assay (footnote a), read-out: IC50±SD RPE-1
Procedure: The resazurin reduction assay[34] was performed as described previously[38]. Briefly, cells were seeded onto a 96-well plate (2000 cells per well) in hexaplicate and the following day treated with the tested compounds (dissolved in DMSO as 50 mM stock) in a concentration range as indicated. After 24 h, 200 μl of culture medium of each well was exchanged for 100 μl of resazurin (stock 30 mg/ml; Sigma, St. Louis, MO) diluted 10 times in the culture medium, and the cells were incubated at 37 °C for 1–3 h. Reading of fluorescence was done using an Envision reader (PerkinElmer, Waltham, MA). Absolute values of fluorescence were related to the values of control/untreated cells. To estimate the cytotoxic concentration (half maximal inhibitory concentration, IC50), log-scale data were processed in GraphPad Prism software (La Jolla, CA) using nonlinear fit curve.

TRAMP-C2 cells = test: Annexin V / propidium iodide FACS, TRAMP-C2; format: cell-based, mouse; settings: TRAMP-C2, 24 h
Procedure: (§6) Cells were harvested by centrifugation, resuspended in cold PBS and again centrifuged. Cell pellets were then resuspended in Annexin V Binding Buffer (ApoFlowEx FITC Kit, ED7044, Exbio, Vestec, Czech Republic), annexin V-APC and PI were added to the cell pellet and mixed. Cells were incubated in the dark at room temperature for 15 min. After the incubation, cells were centrifuged, resuspended in Annexin V Binding Buffer and analysed by flow cytometry. Five thousand cells per sample were measured by analysing annexin V and PI using a BD FACSVerse™ flow cytometer (BD Biosciences, Franklin Lakes, NJ). Data were analysed using FlowJo 10 software (FlowJo LLC, Ashland, OR), and the percentage of viable (annexin V-negative/PI-negative) cells relative to control was plotted.

[1] = system: mouse prostate TRAMP-C2 cancer cell line; test: MTT cytotoxicity assay, TRAMP-C2; format: cell-based; settings: MTT assay; for cytotoxic effect in TRAMP-C2 (in words): 0–50 µM, 24 h
Procedure: (§1) Cells were seeded at the density of 2000 cells per well (96-well F microplates; Nunc, Roskilde, Denmark). The following day, the tested compounds were added. In the next 24 h, MTT (3-(4,5-dimethylthiazol-2-yl)-2,5-diphenyltetrazolium bromide) was added. After 6 h, DMF (dimethylformamide) was added, and after additional 24 h, absorbance was measured at 560 nm by a microplate reader.

osteosarcoma U2-OS = test: Resazurin cytotoxicity assay, U2-OS; settings: 0–50 µM, 24 h
Procedure: (§2) Furthermore, the cytotoxicity of compound 6 was compared to BP-1-102 (1) in human glioblastoma cell lines U-87 and T98 in concentration range 0–80 µM for 24 h using the crystal violet assay.
(§3) The resazurin reduction assay[34] was performed as described previously. Briefly, cells were seeded onto a 96-well plate (2000 cells per well) in hexaplicate and the following day treated with the tested compounds (dissolved in DMSO as 50 mM stock) in a concentration range as indicated. After 24 h, 200 μl of culture medium of each well was exchanged for 100 μl of resazurin (stock 30 mg/ml; Sigma, St. Louis, MO) diluted 10 times in the culture medium, and the cells were incubated at 37 °C for 1–3 h. Reading of fluorescence was done using an Envision reader (PerkinElmer, Waltham, MA). Absolute values of fluorescence were related to the values of control/untreated cells. To estimate the cytotoxic concentration (half maximal inhibitory concentration, IC50), log-scale data were processed in GraphPad Prism software (La Jolla, CA) using nonlinear fit curve.

human glioblastoma U373 = test: Crystal violet assay, U373; settings: 0–50 µM, 24 h
Procedure: (§4) The cells were treated with the compounds at concentrations 0, 5, 10, 20, and 50 µM for 24 h, and the cytotoxicity was estimated by the resazurin assay.
(§5) To determine cell viability by crystal violet assay, cells were seeded in 96-well plates at densities of 3000 (RPE-1), 5000 (U373 and T98-G), and 8000 (U-87 MG) cells per well. The next day the cells were treated with the tested compounds in triplicate in a concentration range as indicated. After 24 h, the cells in each well were washed twice with 150 µl PBS and then stained in 30 µl 0.5% w/v crystal violet in 20% methanol for 15 min. Plates were washed three times with double distilled H2O and left to dry overnight. Crystal violet was solubilised with 75 µl 0.2% Triton X-100 (Sigma, St. Louis, MO) in PBS for 15 min. Absorbance of crystal violet was measured at 595 nm using a microplate reader (Multiskan EX, Thermo Electron Corporation, Waltham, MA). Absorbance of the treated samples was expressed as a percentage of absorbance of untreated cells.

[2] = system: human breast adenocarcinoma MCF-7; test: Resazurin cytotoxicity assay, MCF-7
Procedure: as §2, §3

[3] = system: prostate carcinoma DU-145; test: Resazurin cytotoxicity assay, DU-145
Procedure: as §2, §3

[4] = system: human breast cancer MDA-MB-231 cell line; test: Resazurin cytotoxicity assay, MDA-MB-231; format: cell-based; settings: resazurin assay; for cytotoxic effect in MDA-MB-231 (in words): 0, 5, 10, 20, 50 µM
Procedure: as §4
To estimate IC50 of 6 and 14, MDA-MB-231 cells were treated with 1 (0, 2, 5, 10, 15, 20, 25, 30, 40, and 50 µM), 6 (0, 5, 10, 20, 25, 30, 40, 50, 70, and 100 µM), and 14 (0, 20, 40, 50, 60, 70, 80, 100, 150, and 200 µM) for 24 h.
as §3

[5] = system: human immortalised retinal pigment epithelium RPE-1; test: Crystal violet assay, RPE-1; settings: 0–50 µM, 24 h
Procedure: as §4, §5

[6] = system: STAT3 Y705 phosphorylation (pY705); test: STAT3 pY705 immunoblotting, MDA-MB-231; format: cell-based, human; settings: MDA-MB-231, micromolar concentration range, 4 h
Procedure: The cells were exposed to BP-1-102 (1), compounds 6 and 14 in a micromolar concentration range for 4 h, and then the levels of STAT3 pY705 and total STAT3 were probed by immunoblotting with specific antibodies. […] It can be concluded that both novel compounds 6 and 14 manifested inhibitory effects on receptor-mediated phosphorylation of Y705 of STAT3 in both human and mouse cell lines.
Cells were washed three times with PBS, harvested into 95 °C-heated Laemmli SDS sample lysis buffer (2% SDS, 50 mM Tris–Cl, 10% glycerol in double distilled H2O) and sonicated at 3 μm amplitude for 3 × 10 or 3 × 30 s with 10 or 30 s cooling intervals in a Soniprep 150 (MSE, London, UK) or Diagenode Bioruptor 300 (Diagenode, Liege, Belgium) for human and murine cell lines, respectively. Concentration of proteins was estimated by the Pierce^TM BCA Protein Assay (Thermo Scientific, Waltham, MA). DTT (100 mM) and 0.01% bromophenol blue were added to the lysates before separation by SDS-PAGE (10% gels were used). Equal protein amounts (40 or 35 μg for human or murine cell lines, respectively) were loaded into each well. Proteins were electrotransferred onto a nitrocellulose membrane (Amersham^TM Protran^TM 0.45 µm NC, GE Healthcare, Chalfont St Giles, UK) using wet transfer and detected by specific antibodies (at 4 °C overnight) combined with HRP-conjugated secondary antibodies. Peroxidase activity was detected by Amersham^TM ECL Western Blotting Detection Reagents (GE Healthcare, Chalfont St Giles, UK). GAPDH was used as a loading control.

[7] = system: mouse lung TC-1 cancer cell line; test: MTT cytotoxicity assay, TC-1; format: cell-based; settings: for cytotoxic effect in TC-1 (in words): 0–50 µM, 24 h
Procedure: as §1

MDA-MB-231 cells = test: Annexin V / propidium iodide FACS, MDA-MB-231; format: cell-based, human; settings: MDA-MB-231, 0, 5, 10, 20, 50 µM, 24 h
Procedure: as §6

cervix carcinoma HeLa = test: Resazurin cytotoxicity assay, HeLa; settings: 0–50 µM, 24 h
Procedure: as §2, §3

TC-1 cells = test: Annexin V / propidium iodide FACS, TC-1; settings: TC-1, 24 h
Procedure: as §6

[8] = system: pancreatic cancer Panc-1 cell lines; parameters: method as in PMID 20067773; settings: previously published; cited from earlier work
[9] = system: human breast cancer MDA-MB-231; parameters: method as in PMID 20067773; settings: previously published; cited from earlier work

CN(CC(=O)N(Cc1ccc(C(F)(F)F)cc1)c1ccc(C(=O)O)c(O)c1)S(=O)(=O)c1c(F)c(F)c(F)c(F)c1F [Compound 14, 4-(N-(4-Trifluoromethylbenzyl)-2-(2,3,4,5,6-pentafluoro-N-methylphenylsulfonamido)acetamido)-2-hydroxybenzoic acid]
IC50 (RPE-1): 39.7 ± 7.4 µM
cytotoxicity by annexin V/PI staining and FACS (TRAMP-C2 cells): confirmed
cytotoxic effect in TRAMP-C2 (in words) [1]: cytotoxic activity comparable to BP-1-102 (1)
IC50 ([1]; Mus musculus, read-out: IC50±SD TRAMP-C2): 23.1 ± 10.5 µM
cytotoxic effect in U2-OS (in words) (osteosarcoma U2-OS): comparable to BP-1-102 (1) and compound 6 at 50 µM, it was markedly decreased at lower concentrations
cytotoxic activity in U373 (in words) (human glioblastoma U373): concentration-dependent cytotoxic activity
cytotoxic effect in MCF-7 (in words) ([2]; 0–50 µM, 24 h, resazurin assay): comparable to BP-1-102 (1) and compound 6 at 50 µM, it was markedly decreased at lower concentrations
IC50 ([2]; Homo sapiens, MCF7, read-out: IC50±SD MCF-7): 47.3 ± 3.8 µM
cytotoxic effect in DU-145 (in words) ([3]; 0–50 µM, 24 h, resazurin assay): weaker response
IC50 ([3]; Homo sapiens, DU-145, read-out: IC50±SD DU-145): 65.3 ± 7.8 µM
IC50 ([4]; Homo sapiens, MDA-MB-231, 24 h, 24 h, read-out: IC50±SD MDA-MB-231): 39.3 ± 6.3 µM
concentration from which the compound was cytotoxic ([4]; MDA-MB-231, 24 h): 20 µM
cytotoxic activity in RPE-1 (in words) [5]: concentration-dependent cytotoxic activity
inhibition of constitutive STAT3 Y705 phosphorylation [6]: inhibited constitutive STAT3 phosphorylation
cytotoxic effect in TC-1 (in words) [7]: cytotoxic activity comparable to BP-1-102 (1)
IC50 ([7]; Mus musculus, read-out: IC50±SD TC-1): 25.3 ± 6.6 µM
cell death induction (annexin V/PI, FACS) (MDA-MB-231 cells): cell death induction was confirmed
cytotoxic effect in HeLa (in words) (cervix carcinoma HeLa): comparable to BP-1-102 (1) and compound 6 at 50 µM, it was markedly decreased at lower concentrations
cytotoxicity by annexin V/PI staining and FACS (TC-1 cells): confirmed

Cc1ccc(S(=O)(=O)N(C)CC(=O)N(Cc2ccc(C3CCCCC3)cc2)c2ccc(C(=O)O)c(O)c2)cc1 [S3I-201.1066 (2), 4-(N-(4-Cyclohexylbenzyl)-2-(N-methyl-N-(p-toluenesulfonyl))acetamido)-2-hydroxybenzoic acid, reference compound]
effect on viability of Panc-1 [8]: reported to affect viability
cytotoxic effect in TRAMP-C2 (in words) [1]: did not demonstrate any cytotoxic effect
effect on viability of MDA-MB-231 [9]: reported to affect viability
cytotoxic effect in MDA-MB-231 (in words) ([4]; 24 h): did not show any observable cytotoxic effect
cytotoxic effect in MDA-MB-231 (in words) ([4]; 24 h, listed as 2): complete loss of cytotoxic activity
cytotoxic effect in TC-1 (in words) [7]: did not demonstrate any cytotoxic effect
